The structures appear in SMILES notation.

Data set [1] can be described thus: Plasma protein binding of tracer, mouse plasma. The data set is classed as in vitro ADME. To be noted: radiotracer, 10 min incubation, ultrafiltration, read-out: Free fraction in mouse plasma. As to the method: (§1) Plasma protein binding of [^18F]TAAR1-2203 was determined in mouse, rat, NHP, and human plasma. Plasma samples (150 µL, n = 3) were preincubated at 37 °C for 5 min before addition of [^18F]TAAR1-2203 (10 µCi, 0.37 MBq). After 10 min of incubation, 300 µL of ice-cold PBS were added. Samples (300 µL) were then transferred onto Amicon® centrifugal filter units (10 kDa cut-off) and centrifuged at 2100 g for 15 min at 4 °C. Filtrates were washed with 300 µL PBS and centrifuged again. Radioactivity in the filtrate and protein-bound fractions was measured using a Packard Cobra 5002/5003 gamma counter.

Data set [2] has as its target T1, TAAR1 (Rattus norvegicus, UniProt Q923Y9).
T1 construct: peripheral organs that express endogenous TAAR1; tissue Charles River; host or cells: rat pancreas, kidney
Put plainly: In vitro autoradiography, rat pancreas and kidney sections. To be noted: tracer 5–8 nM; blockade with RO5333943 or RO5425754 at 10 µM. Format: binding, Sprague Dawley rats. As to the method: (§2) In vitro autoradiography experiments with [^18F]TAAR1-2203 were conducted on mouse and rat pancreas, kidney and brain tissue sections, respectively. Tissue Sect. (20 μm) were thawed on ice for 10 min and preincubated in assay buffer (50 mM Tris, pH 7.4) for 10 min. Subsequently, sections were incubated with [^18F]TAAR1-2203 for 40 min at ambient temperature. For blocking studies, structurally distinct TAAR1 agonists, RO5333943 or RO5425754, were added in excess to the assay buffer at a final concentration of 10 µM. After incubation, sections were washed in assay buffer for 2 min on ice and dipped briefly in water (2 × 5 s), followed by drying and exposure to a phosphor imager plate for 60 min. Imager plates were scanned on an Amersham Typhoon analyzer system, and images were analyzed using ImageQuant TL 8.1, as previously reported.

Data set [3] addresses T2, TAAR1 (Mus musculus, UniProt Q923Y8).
T2 construct: peripheral organs that express endogenous TAAR1; tissue Charles River (wild-type); F. Hoffmann-La Roche Ltd. (TAAR1 knock-out and matched controls); host or cells: mouse pancreas, kidney, liver, brain
Put plainly: Dynamic PET imaging, TAAR1 knockout vs wild-type mice. Format: in vivo. Here is the method:
Dynamic PET imaging was performed for 60 min in female C57BL/6 mice, as well as in TAAR1 knock-out mice and respective controls, under 1–2% (v/v) isoflurane anaesthesia as previously reported. [^18F]TAAR1-2203 (1.5 MBq in 100 µL saline) was administered via tail vein injection. For blocking studies, TAAR1 agonist RO5425754 (4 mg/kg) was injected 5 min prior to radiotracer administration. Dynamic PET scans were acquired using a G8 PET/CT scanner (Sofie Biosciences, Culver, CA, USA) and analyzed with PMOD software (PMOD Technologies Ltd., Zurich, Switzerland). Radioactivity was decay-corrected and expressed as standardized uptake values (SUVs), normalized to body weight and injected dose.

Data set [4] concerns the target T2, TAAR1. As to the kind of experiment: In vitro autoradiography, mouse pancreas and kidney sections. The data set is classed as binding, CD1 mice. As to conditions: tracer 5–8 nM; blockade with RO5333943 or RO5425754 at 10 µM. As to the method: as §2
Data set [5] in a line: Microsomal stability, human liver microsomes. The data set is classed as in vitro ADME. As to conditions: after 60 min, 37 °C. Here is the method:
(§3) Microsomal stability of [^18F]TAAR1-2203 was evaluated using mouse, rat, NHP, and human liver microsomes. Potassium phosphate buffer (340 µL, 0.5 M, pH 7.4) was combined with NADPH regenerating solution (40 µL, 10 mM). Radiotracer solution (10 µL, 150 µCi, 5.5 MBq) was added, and the mixture was preincubated at 37 °C for 5 min. Liver microsomes (20 µL) were subsequently added. Incubations were carried out at 37 °C with gentle shaking. At 30 and 60 min, 200 µL aliquots were quenched with ice-cold MeCN (200 µL), centrifuged at 10,000 g for 5 min, and analyzed using an AR-2000 radio-TLC imaging scanner (Eckert & Ziegler).
On the technique in general: Liver microsomes are a subcellular fraction often used to study metabolism.

Data set [6] can be described thus: Stability in formulation, saline and phosphate buffer. Format: physicochemical. As to conditions: up to 4 h at ambient temperature. Here is the method:
[…] Analytical HPLC was performed using an XBridge C18 column (3.5 μm, 4.6 mm × 150 mm) under isocratic conditions with a mobile phase of MeCN/H2O (35:65, v/v) containing 0.1% triethylamine (TEA) at a flow rate of 1.0 mL/min.

Data set [7] is described as follows: Serum stability, rat serum. Format: in vitro ADME. As to conditions: 60 min, 37 °C. As to the method: (§4) The stability of [^18F]TAAR1-2203 was assessed in mouse, rat, NHP, and human serum. Aliquots (400 µL) of serum were preincubated at 37 °C for 5 min, followed by the addition of [^18F]TAAR1-2203 (20 µL, 300 µCi/11.1 MBq). After 60 min, 200 µL of each sample was collected, quenched with ice-cold MeCN (200 µL), centrifuged at 10,000 g for 5 min, and analyzed by radio-HPLC (XBridge C18 column, 3.5 μm, 4.6 mm × 150 mm; CH3CN/H2O 35:65 with 0.1% TEA; flow rate 1.0 mL/min). Experiments in PBS served as negative controls, and benfluorex hydrochloride was used as a positive control.

A short description of data set [8]: Serum stability, mouse serum. To be noted: 60 min, 37 °C. The data set is classed as in vitro ADME. As to the method:
as §4

Data set [9] in a line: Plasma protein binding of tracer, rat plasma. The data set is classed as in vitro ADME. To be noted: radiotracer, 10 min incubation, ultrafiltration, read-out: Free fraction in rat plasma. Here is the method:
as §1

The target of data set [10] is T2, TAAR1. As to the kind of experiment: Ex vivo whole-body biodistribution, baseline and blockade. Format: in vivo, CD1 mice. As to the method: Female CD1 mice (16 weeks old, n = 4) received [^18F]TAAR1-2203 (15 µCi, 0.56 MBq in 100 µL saline) via tail vein injection. For blocking studies, TAAR1 agonist RO5425754 (4 mg/kg) dissolved in saline containing 10% DMSO and 5% Tween® 80 was administered shortly before tracer injection through the same i.v. catheter. Mice were sacrificed at 5, 15, 30, and 60 min post-injection (n = 4 per group), and organs were harvested, weighed, and measured for radioactivity using a Packard Cobra 5002/5003 gamma counter. Data were decay-corrected and expressed as percentage of injected dose per gram of wet tissue (%ID/g).

Data set [11] in a line: Microsomal stability, NHP liver microsomes. Format: in vitro ADME, non-human primate. To be noted: after 60 min, 37 °C. As to the method: as §3
[12] abbreviates: baseline, i.v., initial uptake post-injection.
Setting [13] is: blockade with RO5425754 4 mg/kg, 15 min post-injection, n = 4.

T2 sequence (Q923Y8 whole entry): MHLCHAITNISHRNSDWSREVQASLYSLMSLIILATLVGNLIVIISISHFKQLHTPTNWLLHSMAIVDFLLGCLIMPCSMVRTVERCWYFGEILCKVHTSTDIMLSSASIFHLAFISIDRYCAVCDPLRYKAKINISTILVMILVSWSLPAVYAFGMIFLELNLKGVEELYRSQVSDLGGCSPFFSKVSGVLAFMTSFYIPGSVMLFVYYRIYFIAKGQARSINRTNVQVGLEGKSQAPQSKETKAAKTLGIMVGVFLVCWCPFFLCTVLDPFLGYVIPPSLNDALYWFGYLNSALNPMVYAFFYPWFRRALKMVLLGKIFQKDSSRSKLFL
T1 sequence (Q923Y9 whole entry): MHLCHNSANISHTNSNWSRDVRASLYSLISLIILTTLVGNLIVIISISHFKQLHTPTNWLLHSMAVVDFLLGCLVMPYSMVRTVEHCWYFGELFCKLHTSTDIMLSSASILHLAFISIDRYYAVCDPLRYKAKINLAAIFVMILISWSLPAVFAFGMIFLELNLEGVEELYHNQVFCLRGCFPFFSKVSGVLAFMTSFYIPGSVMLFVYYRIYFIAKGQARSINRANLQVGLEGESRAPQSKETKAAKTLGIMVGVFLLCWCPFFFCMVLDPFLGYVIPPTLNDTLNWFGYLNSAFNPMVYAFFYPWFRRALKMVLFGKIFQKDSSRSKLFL

With `Cc1c([18F])cccc1[C@H]1COC(N)=N1` [[^18F]TAAR1-2203], the fraction unbound at 10 min, 2.47 MBq/mL in [1] is around 0.6. Besides, at TAAR1 [2], the “Reduction of tracer binding, rat kidney” value is “greater than 70%” and the “Reduction of tracer binding, rat pancreas” value is recorded as “more than 50%”. Also, the “Kidney AUC0−60 min in TAAR1 KO vs WT mice” value on TAAR1 [3] was “significant reduction”. Besides, on TAAR1 [4], the “Reduction of tracer binding, mouse kidney” value is “greater than 70%” and the “Reduction of tracer binding, mouse pancreas” value is reported as “more than 50%”. Further, the “Intact tracer in human liver microsomes” value in [5] is listed as above 99%. In addition, in [6], the Stability in formulation result is recorded as “no detectable degradation”. Further, in [7], the “Intact parent tracer in rat serum” value is recorded as above 99%. Moreover, the “Intact parent tracer in mouse serum” value in [8] is above 99%. In data set [9], the fraction unbound at 10 min, 2.47 MBq/mL is around 0.6. In addition, at TAAR1 [10] (setting [12]), the “Initial uptake in kidney” value is listed as “exceeding 10 % ID/g”, the “Initial uptake in lung” value is “exceeding 10 % ID/g” and the “Initial uptake in pancreas” value is listed as “exceeding 10 % ID/g”. Also, the “Specific binding in the brain” value at TAAR1 [10] (blockade with RO5425754 4 mg/kg, 15 min post-injection) is given as “no specific binding was detected”. Moreover, on TAAR1 [10] (setting [13]), the “Specific binding in the kidney” value was determined as 52.5 ± 14.3%, the “Specific binding in the liver” value was found to be 30.2 ± 12.2% and the “Specific binding in the pancreas” value came out at 52.2 ± 15.2%. Also, in data set [11], the “Intact tracer in NHP liver microsomes” value is on record as above 99%.
